The source of these data is ChEMBL document CHEMBL1201862, “PubChem BioAssay data set” (2004).

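Growth conditions: 96-well plates. Treatment: test compound, 48 hours, 5 concentrations. Analysis: linear interpolation between bracketing concentrations; unreached endpoints set to highest concentration. GI50 marks 50% less growth.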 Active and inactive are the calls of the source. Cut-off read from the data, not from the text of the source: active = GI50 up to about 1.1 µM and inactive = higher. Some results are limits rather than exact numbers.

Test systems include SW-620; SF-295; NCI-H522; SR; K562; Malme-3M; SK-MEL-2; NCI-H23; HCT-116; A549; ACHN; SK-MEL-5; M14; NCI-H460; A498; SNB-75; HOP-92; OVCAR-4; PC-3; T47D.
Common to all, as to assay: DTP human tumour cell line panel, 48 h

On to `COc1ccc(-c2[nH]c3ccccc3c2CCNS(=O)(=O)c2ccc(C)cc2)cc1`, for which the GI50 – broadly, the concentration that inhibits growth by half – in the assay with SW-620 is > 10 µM (inactive); in the assay with SF-295 it was > 8.41 µM (inactive); with NCI-H522 it was 7.93 µM (inactive); in the assay on SR, > 10 µM (inactive); in the assay with K562, 5.06 µM (inactive); in the assay with Malme-3M, > 10 µM (inactive). Also, the GI50 in the assay with SK-MEL-2 was > 10 µM (inactive); with NCI-H23 it was > 10 µM (inactive); in the assay with HCT-116, > 8.85 µM (inactive); in the assay with A549, 6.05 µM (inactive); in the assay with ACHN it was > 8.59 µM (inactive); in the assay on SK-MEL-5 it was > 5.9 µM (inactive). Also, the GI50 was > 10 µM (inactive) in the assay on M14; 6.17 µM (inactive) with NCI-H460; > 10 µM (inactive) in the assay with A498; > 10 µM (inactive) with SNB-75; > 10 µM (inactive) in the assay with HOP-92.
`Cc1ccc(N/C(SCc2ccccc2)=C(\C(Cl)=C(Cl)Cl)[N+](=O)[O-])c(C)c1`: the GI50 in the assay with SW-620 was 15.6 µM (inactive); with SF-295, 23.7 µM (inactive); in the assay with Malme-3M, 21.4 µM (inactive); in the assay on SK-MEL-2, 39.6 µM (inactive); with NCI-H23, 19.5 µM (inactive); with HCT-116 it was 16.8 µM (inactive). The GI50 in the assay on A549 was 27.1 µM (inactive); in the assay on ACHN, 43 µM (inactive); in the assay on OVCAR-4 it was 10.8 µM (inactive); in the assay with M14, 16.9 µM (inactive); with NCI-H460 it was 41.7 µM (inactive); in the assay on PC-3, 37.2 µM (inactive). In addition, the GI50 in the assay on A498 was 22.2 µM (inactive); with T47D, 18.1 µM (inactive); in the assay with SNB-75, 29.2 µM (inactive).
As to `Nc1nc2c(ncn2C2OC(CO)C(O)C2O)c(=O)o1` (stereo not given), the GI50 in the assay with SW-620 is > 33.4 µM (inactive); in the assay on SF-295, > 100 µM (inactive); in the assay on NCI-H522, 18.6 µM (inactive); in the assay with K562 it was > 21.9 µM (inactive); in the assay with Malme-3M, > 100 µM (inactive); in the assay with SK-MEL-2, > 100 µM (inactive). Also, the GI50 in the assay with NCI-H23 was > 84.1 µM (inactive); in the assay with HCT-116, > 82.2 µM (inactive); with A549, > 100 µM (inactive); with ACHN, > 83.8 µM (inactive); in the assay with OVCAR-4, > 100 µM (inactive); with SK-MEL-5, > 100 µM (inactive). The GI50 with M14, in the assay with NCI-H460, with PC-3, with A498, in the assay with SNB-75 and with HOP-92 was > 100 µM (inactive) in each case.
On to `COC1/C=C/C(C)C(C(C)C(OC)C(C)CCC(=O)C(C)C(C/C=C/N(C)C=O)OC)OC(=O)C=CC2OC2(C)CC(OC)C(OC)C2=CC(=O)O[C@@H](C(C)C(OC)CC(OC)/C=C/C(C)C(O)C1)[C@H]2O` (stereo not given in full), for which the GI50 in the assay with SW-620 is 0.00379 µM (active); in the assay on SF-295 it was 0.00775 µM (active); with NCI-H522, 0.00369 µM (active); in the assay with SR, 0.012 µM (active); in the assay on K562, 0.00277 µM (active); in the assay on Malme-3M, 0.00673 µM (active). Moreover, the GI50 with SK-MEL-2 is 0.0175 µM (active); in the assay with NCI-H23 it was 0.0239 µM (active); in the assay on HCT-116, 0.000528 µM (active); with A549, 0.00349 µM (active); with ACHN, 0.00313 µM (active); in the assay with OVCAR-4, 0.0208 µM (active). The GI50 was 0.0128 µM (active) in the assay with SK-MEL-5; 0.00333 µM (active) in the assay with M14; 0.00607 µM (active) in the assay with NCI-H460; 0.00609 µM (active) in the assay with PC-3; 0.00785 µM (active) in the assay on A498; 0.0056 µM (active) in the assay with HOP-92.
With `OCCN1CCN2C=C(C3CCCC4N(CCO)CCN34)CCC21` (stereo not given), the GI50 in the assay on SW-620 was 23.6 µM (inactive); in the assay on SF-295, 98.4 µM (inactive); with NCI-H522, > 44 µM (inactive); with SR, 5.68 µM (inactive); in the assay on K562, 11.6 µM (inactive); in the assay on Malme-3M, > 79.8 µM (inactive). The GI50 in the assay on SK-MEL-2 is 23.5 µM (inactive); in the assay with NCI-H23, 43 µM (inactive); in the assay on HCT-116, 24.9 µM (inactive); in the assay with A549 it was > 100 µM (inactive); in the assay on ACHN, > 49.2 µM (inactive); in the assay on OVCAR-4 it was 52.8 µM (inactive). The GI50 in the assay on SK-MEL-5 is 41.9 µM (inactive); in the assay with M14 it was 44.7 µM (inactive); in the assay with NCI-H460 it was > 100 µM (inactive); in the assay with A498, > 100 µM (inactive); in the assay with SNB-75, 34.8 µM (inactive); in the assay with HOP-92, > 60.8 µM (inactive).
`Oc1ccc(-c2csc(N/N=C3\NC/C(=C/c4ccc5c(c4)OCO5)S3)n2)cc1O`: the GI50 in the assay on SW-620 is 35.4 µM (inactive); in the assay on SF-295, 43.2 µM (inactive); with SK-MEL-2, 10 µM (inactive); with NCI-H23, 9.95 µM (inactive); with HCT-116, 29.3 µM (inactive); with A549, 45.5 µM (inactive). Also, the GI50 in the assay with ACHN is 17 µM (inactive); in the assay on OVCAR-4, 32.9 µM (inactive); in the assay on SK-MEL-5 it was 9.82 µM (inactive); in the assay with M14 it was 11.2 µM (inactive); in the assay on NCI-H460, 31 µM (inactive); in the assay with PC-3 it was 26.4 µM (inactive). The results for the GI50 with T47D, in the assay with SNB-75 and with HOP-92 were 31.5 µM (inactive), 1.73 µM (inactive) and 38.5 µM (inactive), respectively.
For `COc1ccc(C(=O)c2[nH]c(Nc3ccc(Cl)cc3)c(C(=S)Nc3ccccc3)c2N)cc1`, the GI50 in the assay with SW-620, in the assay with SF-295, in the assay with NCI-H522, with SR, in the assay with K562 and in the assay on Malme-3M was > 100 µM (inactive) throughout. The GI50 with SK-MEL-2 is > 100 µM (inactive); in the assay with NCI-H23, > 100 µM (inactive); with HCT-116, 60.7 µM (inactive); in the assay with A549, > 100 µM (inactive); in the assay on ACHN, > 100 µM (inactive); with OVCAR-4 it was 23.8 µM (inactive). Besides, the GI50 with SK-MEL-5 was > 100 µM (inactive); in the assay with NCI-H460 it was > 100 µM (inactive); in the assay on A498 it was > 100 µM (inactive); in the assay on T47D, > 100 µM (inactive); in the assay on SNB-75, 44 µM (inactive); with HOP-92, > 100 µM (inactive).
With `CCCCCCCCCCCCCC(=O)OCC1OC(n2cc(F)c(=O)[nH]c2=O)C(NC(=O)OCc2ccccc2)C(OC(=O)CCCCCCCCCCCCC)C1O` (stereo not given), the GI50 in the assay on SW-620 was > 100 µM (inactive); in the assay with SF-295, 22.9 µM (inactive); in the assay with NCI-H522, > 100 µM (inactive); with SR, > 100 µM (inactive); with K562 it was > 100 µM (inactive); in the assay on Malme-3M it was > 100 µM (inactive). Further, the GI50 in the assay on SK-MEL-2, in the assay with NCI-H23, in the assay with HCT-116, in the assay on A549, in the assay on ACHN and with OVCAR-4 was > 100 µM (inactive) in each case. In addition, the GI50 in the assay on SK-MEL-5, with M14, with NCI-H460, with A498, in the assay with SNB-75 and with HOP-92 was > 100 µM (inactive) throughout.
For the compound `CC12CC(c3ccccc3O1)C(C(=O)Nc1nccs1)C(=O)N2` (stereo not given), the GI50 in the assay on SW-620, in the assay on SF-295, in the assay on NCI-H522, with K562, with Malme-3M and in the assay on SK-MEL-2 was > 100 µM (inactive) in each case. Also, the GI50 in the assay with NCI-H23, in the assay on HCT-116, with A549, in the assay on ACHN, in the assay on OVCAR-4 and in the assay with SK-MEL-5 was > 100 µM (inactive) throughout. The GI50 in the assay on M14 was > 100 µM (inactive); in the assay with NCI-H460, > 100 µM (inactive); in the assay with PC-3, > 100 µM (inactive); in the assay with A498 it was > 100 µM (inactive); with SNB-75, > 100 µM (inactive); in the assay on HOP-92 it was 84.3 µM (inactive).
For the compound `Sc1nn2c(Cc3ccccc3)nnc2s1`, the GI50 in the assay on SW-620, with SF-295, in the assay on NCI-H522, in the assay on K562, with Malme-3M and in the assay on SK-MEL-2 was > 100 µM (inactive) throughout. The GI50 in the assay on NCI-H23, with HCT-116, with A549, with ACHN, in the assay on OVCAR-4 and in the assay on SK-MEL-5 was > 100 µM (inactive) throughout. In addition, the GI50 in the assay with M14, with NCI-H460, with PC-3, in the assay on T47D and with HOP-92 was > 100 µM (inactive) in each case.
As to `O=c1c(O)c(-c2ccc(O)cc2O)oc2cc(O)cc(O)c12` [MORIN], the GI50 was > 100 µM (inactive) in the assay with SW-620; > 100 µM (inactive) in the assay on SF-295; > 10 µM (inactive) in the assay on NCI-H522; > 100 µM (inactive) in the assay with K562; > 100 µM (inactive) in the assay on Malme-3M; > 100 µM (inactive) in the assay on SK-MEL-2. Also, the GI50 was > 100 µM (inactive) in the assay on NCI-H23; 86.1 µM (inactive) in the assay with HCT-116; > 100 µM (inactive) in the assay on A549; > 100 µM (inactive) in the assay with ACHN; > 100 µM (inactive) with OVCAR-4; > 100 µM (inactive) in the assay with SK-MEL-5. The GI50 in the assay with M14, with NCI-H460, in the assay on PC-3, with T47D, in the assay on SNB-75 and in the assay with HOP-92 was > 100 µM (inactive) throughout.
